Results reported in PubChem BioAssay AID248 (DTP/NCI, 2004).
Values joined by “and” are separate entries in the source; they are usually repeats but may differ in a detail not shown here. Equal entries are not always repeated. Inconclusive results and toxic doses are left out. Cut-off read from the data, not from the text of the source: active = T/C of 150% or more; inactive = T/C below 125%.

Tested on: L1210 leukemia ip in BDF1 mice, survival T/C
Experiment: NCI In Vivo Anticancer Drug Screen. Data for tumor model L1210 Leukemia (intraperitoneal) in B6D2F1 (BDF1) mice
Details: endpoint: mean survival time, higher = longer survival
Outline: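 Transplanted-tumor mice were given test agent; controls received vehicle only. Survival readings from the two groups were divided (treated over control).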

[1] = dose: 100.0 mg/kg/injection, schedule: Q01DX009 (ip), vehicle: Klucel (hydroxypropylcellulose) (HPC)
[2] = dose: 100.0 mg/kg/injection, schedule: Q04DX003 (ip), vehicle: Klucel (hydroxypropylcellulose) (HPC)
[3] = dose: 200.0 mg/kg/injection, schedule: Q04DX003 (ip), vehicle: Klucel (hydroxypropylcellulose) (HPC)
[4] = dose: 400.0 mg/kg/injection, schedule: Q04DX003 (ip), vehicle: Klucel (hydroxypropylcellulose) (HPC)
[5] = dose: 100.0 mg/kg/injection, schedule: Q01DX001 (ip), vehicle: saline
[6] = dose: 200.0 mg/kg/injection, schedule: Q01DX001 (ip), vehicle: saline
[7] = dose: 400.0 mg/kg/injection, schedule: Q01DX001 (ip), vehicle: saline
[8] = dose: 100.0 mg/kg/injection, schedule: Q04DX003 (ip), vehicle: saline with Tween-80
[9] = dose: 200.0 mg/kg/injection, schedule: Q04DX003 (ip), vehicle: saline with Tween-80
[10] = dose: 400.0 mg/kg/injection, schedule: Q04DX003 (ip), vehicle: saline with Tween-80

Measured: T/C

CC(=O)[O][Hg][c]1sc2ccccc2c1C
inactive: dose: 0.5 mg/kg/injection, schedule: Q01DX015 (ip), vehicle: other 106 % of control | dose: 1.0 mg/kg/injection, schedule: Q01DX015 (ip), vehicle: other 98 % of control | dose: 1.5 mg/kg/injection, schedule: Q04DX003 (ip), vehicle: saline 103 % of control | dose: 2.0 mg/kg/injection, schedule: Q01DX015 (ip), vehicle: other 98 % of control | dose: 2.12 mg/kg/injection, schedule: Q01DX009 (ip), vehicle: saline with Tween-80 98 % of control | dose: 3.0 mg/kg/injection, schedule: Q01DX001 (ip), vehicle: acetone 101 % of control | dose: 3.0 mg/kg/injection, schedule: Q04DX003 (ip), vehicle: saline 95 % of control | dose: 4.0 mg/kg/injection, schedule: Q01DX015 (ip), vehicle: other 96 % of control | dose: 4.25 mg/kg/injection, schedule: Q01DX009 (ip), vehicle: saline with Tween-80 95 % of control | dose: 6.0 mg/kg/injection, schedule: Q01DX001 (ip), vehicle: acetone 95 % of control | dose: 6.0 mg/kg/injection, schedule: Q04DX003 (ip), vehicle: saline 98 % of control | dose: 8.5 mg/kg/injection, schedule: Q01DX009 (ip), vehicle: saline with Tween-80 98 % of control | dose: 8.5 mg/kg/injection, schedule: Q04DX003 (ip), vehicle: acetone 98 % of control | dose: 12.0 mg/kg/injection, schedule: Q01DX001 (ip), vehicle: acetone 86 % of control | dose: 12.0 mg/kg/injection, schedule: Q01DX009 (ip), vehicle: saline with Tween-80 95 % of control and 88 % of control | dose: 19.0 mg/kg/injection, schedule: Q01DX009 (ip), vehicle: saline with Tween-80 92 % of control | dose: 28.0 mg/kg/injection, schedule: Q01DX009 (ip), vehicle: saline with Tween-80 106 % of control

CN(NC(=O)CC(=O)NN(C)C(=S)c1ccccc1)C(=S)c1ccccc1
inactive: dose: 25.0 mg/kg/injection, schedule: Q01DX009 (ip), vehicle: gum acacia 109 % of control | dose: 50.0 mg/kg/injection, schedule: Q01DX009 (ip), vehicle: gum acacia 104 % of control | dose: 100.0 mg/kg/injection, schedule: Q01DX009 (ip), vehicle: gum acacia 100 % of control and 92 % of control | dose: 100.0 mg/kg/injection, schedule: Q04DX003 (ip), vehicle: gum acacia 90 % of control | dose: 200.0 mg/kg/injection, schedule: Q04DX003 (ip), vehicle: gum acacia 97 % of control | dose: 400.0 mg/kg/injection, schedule: Q04DX003 (ip), vehicle: gum acacia 92 % of control

CN(C)C=NC1c2ccccc2CCc2ccccc21
inactive: [1] 98 % of control | [2] 104 % of control | dose: 200.0 mg/kg/injection, schedule: Q01DX009 (ip), vehicle: Klucel (hydroxypropylcellulose) (HPC) 97 % of control | [3] 91 % of control | dose: 400.0 mg/kg/injection, schedule: Q01DX009 (ip), vehicle: Klucel (hydroxypropylcellulose) (HPC) 100 % of control | [4] 94 % of control

Sc1ccc2ccccc2c1CN(Cc1ccccc1)Cc1c(S)ccc2ccccc12
inactive: [5] 91 % of control | [6] 90 % of control | [7] 91 % of control

CCCCCCC(=O)/C=C/c1ccc(N(C)C)cc1
inactive: dose: 100.0 mg/kg/injection, schedule: Q01DX001 (sc), vehicle: steriod suspending solution 97 % of control | dose: 100.0 mg/kg/injection, schedule: Q04DX003 (sc), vehicle: steriod suspending solution 105 % of control | dose: 200.0 mg/kg/injection, schedule: Q01DX001 (sc), vehicle: steriod suspending solution 105 % of control | dose: 200.0 mg/kg/injection, schedule: Q04DX003 (sc), vehicle: steriod suspending solution 103 % of control | dose: 400.0 mg/kg/injection, schedule: Q01DX001 (sc), vehicle: steriod suspending solution 97 % of control | dose: 400.0 mg/kg/injection, schedule: Q04DX003 (sc), vehicle: steriod suspending solution 102 % of control

N#CCC(C(=O)c1cccnc1)c1ccccc1 (stereo not drawn)
inactive: dose: 100.0 mg/kg/injection, schedule: Q04DX002 (ip), vehicle: gum acacia 104 % of control | dose: 200.0 mg/kg/injection, schedule: Q04DX002 (ip), vehicle: gum acacia 87 % of control

CCCCOC(N)=O
inactive: dose: 50.0 mg/kg/injection, schedule: Q01DX001 (ip), vehicle: saline 105 % of control | [5] 95 % of control | [8] 95 % of control and 100 % of control | [6] 93 % of control | [9] 95 % of control and 97 % of control | [7] 98 % of control | [10] 97 % of control and 102 % of control

O=[N+]([O-])c1cc(/C=N\Nc2ccccn2)ccc1Cl
inactive: [2] 112 % of control | [3] 101 % of control | [4] 101 % of control

CC1CC(C)(C)N=C(CCC[N+](=O)[O-])O1 (stereo not drawn)
inactive: dose: 200.0 mg/kg/injection, schedule: Q04DX003 (ip), vehicle: other 103 % of control | dose: 400.0 mg/kg/injection, schedule: Q04DX003 (ip), vehicle: other 88 % of control

CC(=O)c1ccc2cc(O)ccc2c1
inactive: dose: 50.0 mg/kg/injection, schedule: Q04DX003 (ip), vehicle: saline 101 % of control | [5] 97 % of control | dose: 100.0 mg/kg/injection, schedule: Q04DX003 (ip), vehicle: saline 101 % of control | [6] 101 % of control | dose: 200.0 mg/kg/injection, schedule: Q04DX003 (ip), vehicle: saline 103 % of control | [7] 104 % of control

CCOC(=O)C(CCSC)(CCN(C)Cc1ccccc1)C(=O)OCC
inactive: dose: 5.0 mg/kg/injection, schedule: Q01DX001 (ip), vehicle: saline 102 % of control | dose: 10.0 mg/kg/injection, schedule: Q01DX001 (ip), vehicle: saline 96 % of control | dose: 20.0 mg/kg/injection, schedule: Q01DX001 (ip), vehicle: saline 96 % of control | dose: 40.0 mg/kg/injection, schedule: Q01DX001 (ip), vehicle: saline 94 % of control | dose: 80.0 mg/kg/injection, schedule: Q01DX001 (ip), vehicle: saline 94 % of control | [5] 100 % of control

COC(=O)c1ccccc1NC(=O)c1ccccc1[N+](=O)[O-]
inactive: dose: 75.0 mg/kg/injection, schedule: Q04DX003 (ip), vehicle: Klucel (hydroxypropylcellulose) (HPC) 101 % of control | dose: 100.0 mg/kg/injection, schedule: Q01DX001 (ip), vehicle: Klucel (hydroxypropylcellulose) (HPC) 95 % of control | dose: 150.0 mg/kg/injection, schedule: Q04DX003 (ip), vehicle: Klucel (hydroxypropylcellulose) (HPC) 98 % of control | dose: 200.0 mg/kg/injection, schedule: Q01DX001 (ip), vehicle: Klucel (hydroxypropylcellulose) (HPC) 100 % of control | dose: 300.0 mg/kg/injection, schedule: Q04DX003 (ip), vehicle: Klucel (hydroxypropylcellulose) (HPC) 97 % of control | dose: 400.0 mg/kg/injection, schedule: Q01DX001 (ip), vehicle: Klucel (hydroxypropylcellulose) (HPC) 95 % of control

COc1ccc(OC(=O)Nc2ccccc2C(F)(F)F)cc1
inactive: dose: 100.0 mg/kg/injection, schedule: Q01DX009 (ip), vehicle: saline with Tween-80 98 % of control | dose: 200.0 mg/kg/injection, schedule: Q01DX009 (ip), vehicle: saline with Tween-80 107 % of control | dose: 400.0 mg/kg/injection, schedule: Q01DX009 (ip), vehicle: saline with Tween-80 102 % of control

C=C(C=O)C1CCC2=C(CCC3(C)C(C(C)CCCC(C)C)CCC23C)C1(C)CCC#N (stereo not drawn)
inactive: [8] 93 % of control | [9] 96 % of control | [10] 93 % of control

CCCCCP(=O)(CCCC)CCCCC
inactive: dose: 50.0 mg/kg/injection, schedule: Q01DX009 (ip), vehicle: Klucel (hydroxypropylcellulose) (HPC) 89 % of control | [1] 89 % of control
